Molecules are shown by their SMILES.

What all share (assay): Proliferation, CellTiter-Glo, 72 h
What all share (assay type): cell-based

In one test the test system is Colo 205. Particulars: Homo sapiens; Colo 205, CRC; BRAF (V600E); β-catenin status N/A. The method, then: HCC cell lines were treated with DMSO or increasing concentrations of Compound 1 for 72 h. Specifically, Compound 1 at various concentrations in dimethyl sulfoxide (DMSO) was spotted via an acoustic dispenser (EDC ATS-100) into an empty 384-well plate. Compound 1 was spotted in a 10-point serial dilution fashion (3-fold dilution) in duplicate within the plate. Replicates of plates spotted with Compound 1 were made for use with different cell lines. After compound plate replication, all plates were sealed (Agilent ThermoLoc) and stored at −20° C. for up to 1 month. When ready for testing, plates were removed from the freezer, thawed, and unsealed just prior to the addition of the test cells.
Prior to testing, cells were grown and expanded in culture flasks to provide sufficient amounts of starting material. Cells were then diluted to the appropriate densities and added directly to the compound-spotted 384-well plates. […] At the time when compound was added (t0), initial cell number was assessed via a viability assay (Cell Titer-Glo) by quantifying the level of luminescence generated by ATP present in viable cells. After 72 h, cell viability of compound-treated cells was assessed via Cell Titer-Glo and luminescence measurement. The apoptotic response to Compound 1 was assessed by quantifying the activities of caspase 3 and caspase 7 (Caspase 3/7-Glo) in treated cells and DMSO control cells. […]

The subject of a further test is AGS. Particulars: Homo sapiens, Gastric, CTNNB1 (G43E), KRAS (G12D), β-catenin Active.
A further test concerns SW48. Particulars: Homo sapiens; SW48, CRC; CTNNB1 (S33Y); EGFR (G179S); β-catenin Active.

In general, IC50 refers to the concentration that gives 50% inhibition. Lower therefore signals greater potency in that assay. Take `C[C@]1(C(N)=O)CC[C@@H](n2c(Nc3c(Cl)cc(Cl)cc3Cl)nc3cnc(N[C@@H]4CCOC[C@H]4F)nc32)CC1` [Compound 1, cis-4-[2-{[(3S,4R)-3-fluorooxan-4-yl]amino}-8-(2,4,6-trichloroanilino)-9H-purin-9-yl]-1-methyl cyclohexane-1-carboxamide]: the IC50 turned out to be 36 nM in the test with Colo 205, 28 nM in the test on AGS and 9 nM in the test on SW48.

The values are drawn from patent publication US10576085B2, “Substituted aminopurine compounds, compositions thereof, and methods of treatment therewith” (Signal Pharmaceuticals, LLC, priority 2016, dated 2020).
